Structures are written as SMILES.

Assay [1] has as its system RKO cells (human colon cancer cell lines). Kind of assay: Cell growth inhibition study using RKO cells (CellTiter-Glo). The settings on record: 72 h, 3 days. Format: cell-based. Here is the method: The in vitro cell growth inhibition study using RKO cells (human colon cancer cell lines) was conducted as described below.
RKO cells (ATCC, Cat#: CRL-2577) cultured in a MEM medium (GIBCO, Cat#:10370-088) supplemented with 10% FBS, 1 mM L-glutamine (GIBCO, Cat#:25030), and 1 mM sodium pyruvate (GIBCO, Cat#:11360) were seeded in a 96-well flat bottom microplate (COSTAR, Cat#:3904) at 2×10^3 cells (150 μl) and cultured in an incubator containing 5% CO2 at 37° C. for 1 day. The compound according to the present invention subjected to serial dilution with dimethyl sulfoxide or dimethyl sulfoxide alone was added to a MEM medium containing 10% FBS, 1 mM L-glutamine, and 1 mM sodium pyruvate. The resultant medium containing the compound or dimethyl sulfoxide alone was added to the RKO cells in the culture plate by 50 μl/well at the final concentration of the compound to 10, 3, 1, 0.3, 0.1, 0.03, 0.01, 0.003, and 0 μM, respectively. Another RKO cell culture plate separately prepared was allowed to stand at room temperature for 30 minutes, then 100 μl of the medium was removed, and added 50 μl of CellTiter-Glo® 2.0 Assay (Promega, Cat#:G9242) to each well. After the plates were placed in the dark for 10 minutes, the luminescence level derived from viable cells in each well was measured by the Multimode Plate Reader (PerkinElmer, EnSpire). The cells treated with the compound or dimethyl sulfoxide alone were cultured at 37° C. in an incubator containing 5% CO2 for an additional 3 days. After incubation, the culture plate was placed at room temperature for 30 minutes, and 150 μl of the supernatant was removed from each well to adjust the amount of the remaining cell culture solution to 50 μl each. To 50 μl of the remaining cell culture solution, the equivalent amount of CellTiter-Glo® 2.0 Assay was added. After the cell culture plate was placed in the dark for 10 minutes, the luminescence level derived from viable cells in each well was assayed with the use of the Multimode Plate Reader. The cell growth rate was calculated by the formulae shown below and the concentration at which the cell growth rate became 50%; i.e., the concentration of the compound according to the present invention at which cell growth would be inhibited by 50% was determined (GI50 (nM)). Cell growth rate (%)=(T−C0)/(C−C0)×100, provided that T is equal to or greater than C0(T≥C0) Cell growth rate (%)=(T−C0)/C0×100, provided that T is less than C0(T<C0) C0: Luminescence level in each well when the compound is added (count per second) C: Luminescence level in each well when dimethyl sulfoxide is added alone (count per second) T: Luminescence level in each well when the test compound is added (count per second)
As control compounds, conventional Comparative Example A (WO 2010/056563 (Example 31)) and Comparative Example B having inhibitory activity against Akt were used.
The GI50 levels of representative compounds according to the present invention and reference compounds in RKO cells were evaluated, and the results are shown in Table 5.
On the technique in general: ATP-based viability assays read luminescence as a measure of living cells.

Assay [2] concerns HEC-6 cells (endometrial cancer cell lines). Nature of the assay: Cell growth suppression test on HEC-6 cells (CellTiter-Glo). Format: cell-based. The settings on record: 72 h, read-out: Cell growth inhibition GI50, heading: Cell growth inhibition GI50, 3 days, table head prints μM, method says GI50 (nM). Here is the method: The in vitro cell growth suppression test on HEC-6 cells (endometrial cancer cell lines) was performed under the conditions described below.
HEC-6 cells (Health Science Research Resources Bank, Cell Number: JCRB1118) cultured in a MEM medium containing 15% FBS (GIBCO, Cat#: 10370) were seeded on a 384-well flat bottom microplate (CORNING, Cat#: 3571) at 500 cells/well (20 μl) and cultured in an incubator containing 5% carbon dioxide at 37° C. for 1 day. The compound according to the present invention subjected to serial dilution with dimethyl sulfoxide or dimethyl sulfoxide alone was added to a MEM medium containing 15% FBS. […] Thereafter, the luminescence level derived from viable cells in each well was assayed with the use of the Multimode Plate Reader (PerkinElmer, EnVision). […] Thereafter, the luminescence level derived from viable cells in each well was assayed with the use of the Multimode Plate Reader. […] Cell growth rate (%)=(T−C0)/(C−C0)×100, provided that T is equal to or greater than C0(T≥C0) Cell growth rate (%)=(T−C0)/C0×100, provided that T is less than C0(T<C0) C0: Luminescence level in each well when the compound is added (count per second) C: Luminescence level in each well when dimethyl sulfoxide is added alone (count per second) T: Luminescence level in each well when the test compound is added (count per second) […]

For assay [3], the target named is human Akt1 (Homo sapiens (Human), UniProt P31749). Kind of assay: Inhibitory effects on Akt1 kinase activity (TR-FRET, biotinylated Crosstide). The settings on record: Akt1, ATP 150 μM, pre-incubation 120 minutes at 25° C.; read-out: AKT inhibitory activity IC50. Format: biochemical. In a few lines:
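Middle T-tagged human Akt1 from Sf9 cells, PDK1-activated, pre-incubated with compound 120 min at 25 °C (Tris pH 7.5); then 500 nM biotin-Crosstide, 10 mM MgCl2, 150 μM ATP for 60 min at 25 °C. Eu-anti-phospho-Crosstide/APC-SA TR-FRET 665/620 ratio; IC50 as 50% phosphorylation inhibition.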
In general terms: Time-resolved FRET reads energy transfer from a long-lived donor to a nearby acceptor.

Assay [4] deals with S6K1 (Homo sapiens (Human), UniProt P23443). Kind of assay: Inhibitory effects on S6K1 kinase activity (QSS Assist FP assay kit). Format: biochemical. The settings on record: S6K1, ATP 25 μM; read-out: S6K inhibitory activity IC50. In outline: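 S6K protein with 100 nM substrate peptide, 5 mM MgCl2, 25 μM ATP and 5% DMSO, in 20 mM HEPES pH 7.4, reacted 30 min at 25 °C. Reaction stopped with IMAP binding reagent, 120 min dark, then fluorescence polarization (ex 485/em 520 nm) read.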

Assay [5] has as its target Rsk1 (Homo sapiens (Human), UniProt Q15418). Nature of the assay: Inhibitory effects on Rsk1 kinase activity (QSS Assist FP assay kit). Format: biochemical. The settings on record: Rsk1, ATP 30 μM; read-out: Rsk inhibitory activity IC50.

Sequence of human Akt1 (P31749 whole entry): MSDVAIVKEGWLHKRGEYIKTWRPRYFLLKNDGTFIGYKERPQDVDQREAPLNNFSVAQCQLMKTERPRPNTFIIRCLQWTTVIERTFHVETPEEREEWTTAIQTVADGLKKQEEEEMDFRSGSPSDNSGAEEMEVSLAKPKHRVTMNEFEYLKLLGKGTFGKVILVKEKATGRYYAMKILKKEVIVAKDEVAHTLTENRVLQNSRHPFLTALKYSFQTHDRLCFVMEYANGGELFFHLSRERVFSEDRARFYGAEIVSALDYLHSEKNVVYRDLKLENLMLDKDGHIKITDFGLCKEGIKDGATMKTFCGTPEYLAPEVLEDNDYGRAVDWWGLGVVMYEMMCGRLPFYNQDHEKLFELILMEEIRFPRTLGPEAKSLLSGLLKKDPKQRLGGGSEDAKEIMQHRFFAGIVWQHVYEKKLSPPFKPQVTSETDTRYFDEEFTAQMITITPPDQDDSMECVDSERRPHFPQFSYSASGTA
Sequence of Rsk1 (Q15418 whole entry): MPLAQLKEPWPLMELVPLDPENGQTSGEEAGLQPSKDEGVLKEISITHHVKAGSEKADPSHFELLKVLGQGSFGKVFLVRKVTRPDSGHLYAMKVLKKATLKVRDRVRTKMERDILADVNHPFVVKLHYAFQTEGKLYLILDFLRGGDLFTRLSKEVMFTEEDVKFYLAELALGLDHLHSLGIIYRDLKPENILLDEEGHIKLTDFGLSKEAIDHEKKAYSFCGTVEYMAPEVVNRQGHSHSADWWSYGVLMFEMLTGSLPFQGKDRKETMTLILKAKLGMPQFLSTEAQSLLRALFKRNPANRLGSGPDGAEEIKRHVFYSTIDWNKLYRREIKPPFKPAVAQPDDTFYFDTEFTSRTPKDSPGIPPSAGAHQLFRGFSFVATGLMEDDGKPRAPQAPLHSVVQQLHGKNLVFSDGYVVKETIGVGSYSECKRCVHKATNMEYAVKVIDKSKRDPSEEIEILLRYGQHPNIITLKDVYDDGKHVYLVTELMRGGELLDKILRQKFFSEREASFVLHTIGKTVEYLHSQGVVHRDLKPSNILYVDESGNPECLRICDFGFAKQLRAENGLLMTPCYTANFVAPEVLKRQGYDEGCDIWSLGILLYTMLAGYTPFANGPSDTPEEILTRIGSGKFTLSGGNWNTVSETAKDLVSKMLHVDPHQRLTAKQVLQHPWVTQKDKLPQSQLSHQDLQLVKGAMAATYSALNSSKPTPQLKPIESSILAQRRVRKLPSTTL
Sequence of S6K1 (P23443 whole entry): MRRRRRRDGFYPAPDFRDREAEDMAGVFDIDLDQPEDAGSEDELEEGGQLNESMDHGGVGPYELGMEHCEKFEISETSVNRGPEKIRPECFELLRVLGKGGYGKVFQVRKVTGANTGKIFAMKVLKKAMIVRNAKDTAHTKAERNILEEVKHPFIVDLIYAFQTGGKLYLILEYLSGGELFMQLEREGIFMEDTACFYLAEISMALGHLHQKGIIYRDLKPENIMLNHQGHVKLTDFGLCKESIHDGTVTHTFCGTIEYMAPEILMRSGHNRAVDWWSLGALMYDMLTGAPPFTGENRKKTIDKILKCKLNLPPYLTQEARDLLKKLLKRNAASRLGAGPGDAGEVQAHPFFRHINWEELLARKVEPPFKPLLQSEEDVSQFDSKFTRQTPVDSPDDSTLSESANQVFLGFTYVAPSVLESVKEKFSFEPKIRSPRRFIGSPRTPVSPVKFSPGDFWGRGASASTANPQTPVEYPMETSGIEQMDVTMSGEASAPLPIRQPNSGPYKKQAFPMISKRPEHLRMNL

For `CN(C)CCn1cc(-c2ccc(F)c(C(F)(F)F)c2)nc1C1CCN(c2ncnc3c2C(C)(C)C(=O)N3)CC1` [Comparative Example A, reference compound], the 50% growth inhibitory concentration (GI50) (as a rule, the concentration giving 50% growth inhibition) was 1.05 µM in assay [1] and 1.04 µM in assay [2].
As for `CC(C)(C)NCCNc1cc(-c2cncc(F)c2)nc(C2CCN(c3ncnc4c3C(C)(C)C(=O)N4)CC2)c1` [Comparative Example B, 4-(4-(4-((2-(Tert-butylamino)ethyl)amino)-5′-fluoro-[2,3′-bipyridin]-6-yl)piperidin-1-yl)-5,5-dimethyl-5H-pyrrolo[2,3-d]pyrimidin-6(7H)-one, reference compound], the IC50 (as a rule, the concentration needed to halve the response being measured) in assay [3] is 0.657 µM. Also, the 50% growth inhibitory concentration (GI50) in assay [1] stood at 2.64 µM; in assay [2], 2.92 µM.
With `CC1(C)C(=O)Nc2ncnc(N3CCC(c4nc(-c5nnc(C(F)F)o5)ccc4NCCN4CCCC4)CC3)c21` [Compound 30, 4-(4-(6-(5-(Difluoromethyl)-1,3,4-oxadiazol-2-yl)-3-((2-(pyrrolidin-1-yl)ethyl)amino)pyridin-2-yl)piperidin-1-yl)-5,5-dimethyl-5H-pyrrolo[2,3-d]pyrimidin-6(7H)-one], the IC50 in assay [4] worked out at 0.0005 µM; in assay [3], 0.0145 µM; in assay [5], 0.0017 µM. In assay [1], this molecule returned a GI50 of 0.082 µM.
In the same order, the values of `CC(C)(C)NCCNc1ccc(-c2noc(C(F)F)n2)nc1C1CCN(c2ncnc3c2C(C)(C)C(=O)N3)CC1` [Compound 41, 4-(4-(3-((2-(Tert-butylamino)ethyl)amino)-6-(5-(difluoromethyl)-1,2,4-oxadiazol-3-yl)pyridin-2-yl)piperidin-1-yl)-5,5-dimethyl-5H-pyrrolo[2,3-d]pyrimidin-6(7H)-one] are 0.0003 µM, 0.0072 µM, 0.0016 µM and 0.086 µM.
For `CC1(C)C(=O)Nc2ncnc(N3CCC(c4nc(-c5nc(C(F)(F)F)no5)ccc4NCCN4CCCC4)CC3)c21` [Compound 44, 5,5-Dimethyl-4-(4-(3-((2-(pyrrolidin-1-yl)ethyl)amino)-6-(3-(trifluoromethyl)-1,2,4-oxadiazol-5-yl)pyridin-2-yl)piperidin-1-yl)-5H-pyrrolo[2,3-d]pyrimidin-6(7H)-one], the figures for the IC50 in assay [4], in assay [3] and in assay [5] were 0.0004 µM, 0.0026 µM and 0.0005 µM, respectively. In assay [1], this molecule showed a concentration for 50% growth inhibition (GI50) of 0.102 µM.

These data come from patent publication US10538528B2, “5H-pyrrolo[2,3-D]pyrimidin-6(7H)-one derivative” (Taiho Pharmaceutical Co., Ltd., priority 2016, dated 2020).
